Measured values taken from ChEMBL document CHEMBL4715829, “Heterodimeric Rifampicin-Tobramycin conjugates break intrinsic resistance of Pseudomonas aeruginosa to doxycycline and chloramphenicol in vitro and in a Galleria mellonella in vivo model” (Eur J Med Chem, 2019).
≈ marks a conversion by molar mass, not a printed value.

Columns and labels:
Pseudomonas aeruginosa [1] = experiment: Antibacterial activity against Pseudomonas aeruginosa 260-97103 assessed as reduction in bacterial growth incubated for 18 hrs by broth microdilution assay; format: functional
Escherichia coli [2] = experiment: Antibacterial activity against Escherichia coli ATCC 25922 assessed as reduction in bacterial growth incubated for 18 hrs by broth microdilution assay; format: functional
[3] = test system: Staphylococcus epidermidis; experiment: Antibacterial activity against methicillin-resistance Staphylococcus epidermidis CAN-ICU 61589 (CAZ>32) assessed as reduction in bacterial growth incubated for 18 hrs by broth microdilution assay; format: functional
Pseudomonas aeruginosa [4] = experiment: Antibacterial activity against Pseudomonas aeruginosa 100036 assessed as fractional inhibitory concentration incubated for 18 hrs in presence of chloramphenicol by broth microdilution assay; format: functional
Pseudomonas aeruginosa [5] = experiment: Antibacterial activity against wild type Pseudomonas aeruginosa PAO1 assessed as reduction in bacterial growth incubated for 18 hrs by broth microdilution assay; format: functional
Staphylococcus aureus = experiment: Antibacterial activity against methicillin-resistance Staphylococcus aureus ATCC 33592 assessed as reduction in bacterial growth incubated for 18 hrs by broth microdilution assay; format: functional
Pseudomonas aeruginosa [6] = experiment: Antibacterial activity against Pseudomonas aeruginosa 114228 assessed as reduction in bacterial growth incubated for 18 hrs by broth microdilution assay; format: functional
Pseudomonas aeruginosa [7] = experiment: Antibacterial activity against Pseudomonas aeruginosa 262-101856 assessed as fractional inhibitory concentration incubated for 18 hrs in presence of chloramphenicol by broth microdilution assay; format: functional
Pseudomonas aeruginosa [8] = experiment: Antibacterial activity against Pseudomonas aeruginosa 264-101354 assessed as fractional inhibitory concentration incubated for 18 hrs in presence of chloramphenicol by broth microdilution assay; format: functional
Pseudomonas aeruginosa [9] = experiment: Antibacterial activity against Pseudomonas aeruginosa 100036 assessed as reduction in bacterial growth incubated for 18 hrs by broth microdilution assay; format: functional
Pseudomonas aeruginosa [10] = experiment: Antibacterial activity against Pseudomonas aeruginosa 101243 assessed as fractional inhibitory concentration incubated for 18 hrs in presence of chloramphenicol by broth microdilution assay; format: functional
Streptococcus pneumoniae = experiment: Antibacterial activity against Streptococcus pneumoniae ATCC 49619 assessed as reduction in bacterial growth incubated for 18 hrs by broth microdilution assay; format: functional
Pseudomonas aeruginosa [11] = experiment: Antibacterial activity against Pseudomonas aeruginosa 101243 assessed as fractional inhibitory concentration incubated for 18 hrs in presence of doxycycline by broth microdilution assay; format: functional
Pseudomonas aeruginosa [12] = experiment: Antibacterial activity against Pseudomonas aeruginosa 264-101354 assessed as reduction in bacterial growth incubated for 18 hrs by broth microdilution assay; format: functional
Pseudomonas aeruginosa [13] = experiment: Antibacterial activity against Pseudomonas aeruginosa 101885 assessed as reduction in bacterial growth incubated for 18 hrs by broth microdilution assay; format: functional
Enterobacter cloacae = experiment: Antibacterial activity against Enterobacter cloacae ATCC 117029 assessed as reduction in bacterial growth incubated for 18 hrs by broth microdilution assay; format: functional
Pseudomonas aeruginosa [14] = experiment: Antibacterial activity against Pseudomonas aeruginosa PAO1 assessed as reduction in bacterial growth by measuring colistin MIC at <=10 uM in presence of colistin incubated for 18 hrs by broth microdilution assay based checkerboard assay (reference value: 1 microg/ml); format: functional; details: dose microM <=10
Klebsiella pneumoniae [15] = experiment: Antibacterial activity against Klebsiella pneumoniae ATCC 16381 assessed as fractional inhibitory concentration index in presence of chloramphenicol incubated for 18 hrs by broth microdilution assay; format: functional
Pseudomonas aeruginosa [16] = experiment: Antibacterial activity against Pseudomonas aeruginosa 100036 assessed as fractional inhibitory concentration index in presence of doxycycline incubated for 18 hrs by broth microdilution assay; format: functional
Pseudomonas aeruginosa [17] = experiment: Antibacterial activity against Pseudomonas aeruginosa PAO1 assessed as reduction in bacterial growth by measuring tobramycin MIC at <=10 uM in presence of tobramycin incubated for 18 hrs by broth microdilution assay based checkerboard assay (reference value: 1 microg/ml); format: functional; details: dose microM <=10
Pseudomonas aeruginosa [18] = experiment: Antibacterial activity against Pseudomonas aeruginosa 101885 assessed as fractional inhibitory concentration index in presence of chloramphenicol incubated for 18 hrs by broth microdilution assay; format: functional
Klebsiella pneumoniae [19] = experiment: Antibacterial activity against Klebsiella pneumoniae ATCC 16381 assessed as fractional inhibitory concentration index in presence of doxycycline incubated for 18 hrs by broth microdilution assay; format: functional
Klebsiella pneumoniae [20] = experiment: Antibacterial activity against Klebsiella pneumoniae ATCC 16381 assessed as potentiation of chloramphenicol-induced antibacterial activity by measuring chloramphenicol MIC at 10 uM incubated for 18 hrs in presence of chloramphenicol by broth microdilution assay (reference value: 1024 ug/ml); format: functional
Escherichia coli [21] = experiment: Antibacterial activity against Escherichia coli ATCC 25922 assessed as potentiation of doxycycline-induced antibacterial activity by measuring doxycycline MIC at 10 uM incubated for 18 hrs in presence of doxycycline by broth microdilution assay (reference value: 0.5 ug/ml); format: functional
Pseudomonas aeruginosa [22] = experiment: Potentiation of doxycycline-induced antibacterial activity against Pseudomonas aeruginosa 264-101354 incubated for 18 hrs in presence of doxycycline by broth microdilution assay; format: functional, organism-based; details: dose 1-32 µg/ml
Pseudomonas aeruginosa [23] = experiment: Antibacterial activity against Pseudomonas aeruginosa PAO1 assessed as fractional inhibitory concentration index in presence of Tigecycline incubated for 18 hrs by broth microdilution assay based checkerboard assay; format: functional
Escherichia coli [24] = experiment: Antibacterial activity against Escherichia coli ATCC 25922 assessed as fractional inhibitory concentration index in presence of chloramphenicol incubated for 18 hrs by broth microdilution assay; format: functional
Pseudomonas aeruginosa [25] = experiment: Antibacterial activity against Pseudomonas aeruginosa PAO1 assessed as reduction in bacterial growth by measuring tigecycline MIC at <=10 uM in presence of tigecycline incubated for 18 hrs by broth microdilution assay based checkerboard assay (reference value: 4 microg/ml); format: functional; details: dose microM <=10
Pseudomonas aeruginosa [26] = experiment: Potentiation of chloramphenicol-induced antibacterial activity against Pseudomonas aeruginosa 260-97103 incubated for 18 hrs in presence of chloramphenicol by broth microdilution assay; format: functional, organism-based; details: dose 1-32 µg/ml
Pseudomonas aeruginosa [27] = experiment: Potentiation of doxycycline-induced antibacterial activity against Pseudomonas aeruginosa 260-97103 incubated for 18 hrs in presence of doxycycline by broth microdilution assay; format: functional, organism-based; details: dose 1-32 µg/ml
Pseudomonas aeruginosa [28] = experiment: Potentiation of doxycycline-induced antibacterial activity against Pseudomonas aeruginosa PAO1 incubated for 18 hrs in presence of doxycycline by broth microdilution assay; format: functional, organism-based; details: dose 1-32 µg/ml
Acinetobacter baumannii [29] = experiment: Antibacterial activity against Acinetobacter baumannii ATCC 17978 assessed as fractional inhibitory concentration index in presence of doxycycline incubated for 18 hrs by broth microdilution assay; format: functional
Pseudomonas aeruginosa [30] = experiment: Antibacterial activity against Pseudomonas aeruginosa PAO1 assessed as fractional inhibitory concentration index in presence of Doxycycline incubated for 18 hrs by broth microdilution assay based checkerboard assay; format: functional
Pseudomonas aeruginosa [31] = experiment: Antibacterial activity against Pseudomonas aeruginosa 114228 assessed as fractional inhibitory concentration index in presence of doxycycline incubated for 18 hrs by broth microdilution assay; format: functional
Acinetobacter baumannii [32] = experiment: Antibacterial activity against Acinetobacter baumannii ATCC 17978 assessed as potentiation of doxycycline-induced antibacterial activity by measuring doxycycline MIC at 10 uM incubated for 18 hrs in presence of doxycycline by broth microdilution assay (reference value: 0.25 ug/ml); format: functional
Pseudomonas aeruginosa [33] = experiment: Antibacterial activity against Pseudomonas aeruginosa PAO1 assessed as fractional inhibitory concentration index in presence of Linezolid incubated for 18 hrs by broth microdilution assay based checkerboard assay; format: functional
Pseudomonas aeruginosa [34] = experiment: Antibacterial activity against Pseudomonas aeruginosa PAO1 assessed as fractional inhibitory concentration index in presence of Chloramphenicol incubated for 18 hrs by broth microdilution assay based checkerboard assay; format: functional

Structure (SMILES) | MIC (Pseudomonas aeruginosa [1]) [µg/mL] | MIC (Escherichia coli [2]) [µg/mL] | MIC [3] [µg/mL] | FIC (Pseudomonas aeruginosa [4]) | MIC (Pseudomonas aeruginosa [5]) [µg/mL] | MIC (Staphylococcus aureus) [µg/mL] | MIC (Pseudomonas aeruginosa [6]) [µg/mL] | FIC (Pseudomonas aeruginosa [7]) | FIC (Pseudomonas aeruginosa [8]) | MIC (Pseudomonas aeruginosa [9]) [µg/mL] | FIC (Pseudomonas aeruginosa [10]) | MIC (Streptococcus pneumoniae) [µg/mL] | FIC (Pseudomonas aeruginosa [11]) | MIC (Pseudomonas aeruginosa [12]) [µg/mL] | MIC (Pseudomonas aeruginosa [13]) [µg/mL] | MIC (Pseudomonas aeruginosa [14]) [µg/mL] | fractional inhibitory concentration index (FICI) (Pseudomonas aeruginosa [16]) | MIC (Pseudomonas aeruginosa [17]) [µg/mL] | fractional inhibitory concentration index (FICI) (Pseudomonas aeruginosa [23]) | MIC (Pseudomonas aeruginosa [25]) [µg/mL] | other results
CO[C@H]1/C=C/O[C@@]2(C)Oc3c(C)c(O)c4c(O)c(c(/C=N/N5CCN(C)CC5)c(O)c4c3C2=O)NC(=O)/C(C)=C\C=C\[C@H](C)[C@H](O)[C@@H](C)[C@@H](O)[C@@H](C)[C@H](OC(C)=O)[C@@H]1C [RIFAMPIN] | 16 (≈ 19.4 µM) | 8 (≈ 9.72 µM) | ≤ 0.25 | 0.5 | 16 (≈ 19.4 µM) | > 128 | 16 (≈ 19.4 µM) | 0.5 | 0.5 | 32 (≈ 38.9 µM) | 0.5 | ≤ 0.25 | 0.5 | 16 (≈ 19.4 µM) | 32 (≈ 38.9 µM) |  |  |  |  |  | 
CO[C@H]1/C=C/O[C@@]2(C)Oc3c(C)c(O)c4c(O)c(c(/C=N/N5CCN(Cc6cn(CCCCCCO[C@@H]7[C@@H](O[C@H]8O[C@H](CO)[C@@H](O)[C@H](N)[C@H]8O)[C@H](N)C[C@H](N)[C@H]7O[C@H]7O[C@H](CN)[C@@H](O)C[C@H]7N)nn6)CC5)c(O)c4c3C2=O)NC(=O)/C(C)=C\C=C\[C@H](C)[C@H](O)[C@@H](C)[C@@H](O)[C@@H](C)[C@H](OC(C)=O)[C@@H]1C.Cl.Cl.Cl.Cl.Cl | > 128 | ≥ 32 | 4 |  | 512 | > 32 | > 128 |  |  | 256 |  | 2 |  | 256 | 256 | 0.5 | 0.078 | 1 | 0.51 | 2 | MIC (Enterobacter cloacae): 16 µg/mL; fractional inhibitory concentration index (FICI) (Klebsiella pneumoniae [15]): <0.375; fractional inhibitory concentration index (FICI) (Pseudomonas aeruginosa [18]): 0.078; fractional inhibitory concentration index (FICI) (Klebsiella pneumoniae [19]): <0.516; MIC (Klebsiella pneumoniae [20]): 256 µg/mL; MIC (Escherichia coli [21]): 0.125 µg/mL; Activity (Pseudomonas aeruginosa [22]): Dose-dependent effect; fractional inhibitory concentration index (FICI) (Escherichia coli [24]): 0.75; Activity (Pseudomonas aeruginosa [26]): Dose-dependent effect; Activity (Pseudomonas aeruginosa [27]): Dose-dependent effect; Activity (Pseudomonas aeruginosa [28]): Dose-dependent effect; fractional inhibitory concentration index (FICI) (Acinetobacter baumannii [29]): 1.25; fractional inhibitory concentration index (FICI) (Pseudomonas aeruginosa [30]): 0.06; fractional inhibitory concentration index (FICI) (Pseudomonas aeruginosa [31]): <0.156; MIC (Acinetobacter baumannii [32]): 0.25 µg/mL; fractional inhibitory concentration index (FICI) (Pseudomonas aeruginosa [33]): 0.15; fractional inhibitory concentration index (FICI) (Pseudomonas aeruginosa [34]): 0.06
CO[C@H]1/C=C/O[C@@]2(C)Oc3c(C)c(O)c4c(O)c(c(/C=N/N5CCN(Cc6cn(CCCCO[C@@H]7[C@@H](O[C@H]8O[C@H](CO)[C@@H](O)[C@H](N)[C@H]8O)[C@H](N)C[C@H](N)[C@H]7O[C@H]7O[C@H](CN)[C@@H](O)C[C@H]7N)nn6)CC5)c(O)c4c3C2=O)NC(=O)/C(C)=C\C=C\[C@H](C)[C@H](O)[C@@H](C)[C@@H](O)[C@@H](C)[C@H](OC(C)=O)[C@@H]1C.O=C(O)C(F)(F)F.O=C(O)C(F)(F)F.O=C(O)C(F)(F)F.O=C(O)C(F)(F)F.O=C(O)C(F)(F)F | > 128 | > 32 | 2 |  | 512 | > 32 | > 128 |  |  | > 256 |  | 1 |  | 256 | 256 | 0.5 |  | 1 | 0.51 | 2 | fractional inhibitory concentration index (FICI) (Pseudomonas aeruginosa [30]): 0.09; fractional inhibitory concentration index (FICI) (Pseudomonas aeruginosa [33]): 1.03; fractional inhibitory concentration index (FICI) (Pseudomonas aeruginosa [34]): 0.28
NC[C@H]1O[C@H](O[C@H]2[C@H](O)[C@@H](O[C@H]3O[C@H](CO)[C@@H](O)[C@H](N)[C@H]3O)[C@H](N)C[C@@H]2N)[C@H](N)C[C@@H]1O [TOBRAMYCIN] | 32 (≈ 68.4 µM) | 0.5 (≈ 1.07 µM) | 2 (≈ 4.28 µM) | 0.5 | 1 (≈ 2.14 µM) | 0.5 (≈ 1.07 µM) | 8 (≈ 17.1 µM) | <=0.5 | 0.5 | 128 (≈ 274 µM) | 0.5 | 2 (≈ 4.28 µM) | 0.5 | 128 (≈ 274 µM) | 1 (≈ 2.14 µM) |  | 1.5 |  |  |  | 
